This is an account of results in US20090246134A1, “COMPOSITIONS AND METHODS FOR MODULATING GATED ION CHANNELS” (PainCeptor Pharma Corporation, priority 2007, published 2009).

The target in one data set is T1, ASIC1a (Homo sapiens, UniProt P78348).
T1 sequence (P78348 1-528): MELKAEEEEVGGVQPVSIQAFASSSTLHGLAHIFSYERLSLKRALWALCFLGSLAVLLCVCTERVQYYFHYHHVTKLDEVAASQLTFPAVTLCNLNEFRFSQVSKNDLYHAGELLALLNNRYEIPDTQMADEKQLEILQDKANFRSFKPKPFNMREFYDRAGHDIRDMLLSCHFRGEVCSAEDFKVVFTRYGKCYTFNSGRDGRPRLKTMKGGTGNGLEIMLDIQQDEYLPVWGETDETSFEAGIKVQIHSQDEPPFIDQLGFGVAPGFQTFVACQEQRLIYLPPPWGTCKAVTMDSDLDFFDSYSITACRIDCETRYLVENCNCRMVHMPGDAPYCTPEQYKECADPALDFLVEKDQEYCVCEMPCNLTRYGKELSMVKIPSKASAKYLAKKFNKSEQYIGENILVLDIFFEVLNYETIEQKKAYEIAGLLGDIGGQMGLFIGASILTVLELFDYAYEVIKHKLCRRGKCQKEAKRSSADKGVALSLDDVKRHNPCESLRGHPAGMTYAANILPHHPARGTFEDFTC
Kind of data set: Calcium-imaging (calcium mobilization, FLIPR) assay in ASIC1a expressing HEK293 cells. It is filed as cell-based. Details: host or cells: HEK293. To be noted: n=3-7, compounds not radiolabelled. Here is the method:
ASIC1a expressing HEK293 cells are grown in culture medium (DMEM with 10% FBS), in polystyrene culture flasks ([…]) at 37° C. in a humidified atmosphere of 5% CO2. Confluency of cells should be 80-90% on day of plating. Cells are rinsed with 10 ml of PBS and re-suspended by addition of culture medium and trituration with a 25 ml pipette.
The cells are seeded at a density of approximately 1×10^6 cells/ml (100 μl/well) in black-walled, clear bottom, 96-well plates pre-treated with 10 mg/l poly-D-lysin (75 μl/well for ≧30 min). Plated cells were allowed to proliferate for 24 h before loading with dye.
Fluo-4/AM (1 mg, Molecular Probes) is dissolved in 912 μl DMSO. The Fluo-4/AM stock solution (1 mM) is diluted with culture medium to a final concentration of 2 μM (loading solution).
The culture medium is aspirated from the wells, and 50 μl of the Fluo-4/AM loading solution is added to each well. The cells are incubated at 37° C. for 30 min.
After the loading period, the loading solution is aspirated and the cells are washed twice with 100 μl modified Assay Buffer (145 mM NaCl, 5 mM KCl, 5 mM CaCl2, 1 mM MgCl2, 10 mM HEPES, pH 7.4) to remove extracellular dye. Following the second wash, 100 μl modified Assay Buffer is added to each well and the fluorescence is measured in FLIPR™ or FlexStation™ (Molecular Devices, USA), or any other suitable equipment known to the skilled in the art.
Temperature: Room temperature (20-22° C.)
First addition: 50 μl test solution at a rate of 30 μl/sec and a starting height of […]
Second addition: 50 μl MES solution (20 mM, 5 mM final concentration) at a rate of 35 μl/sec and a starting height of 150 μl.
Reading intervals: pre-incubation—10 sec×7 and 3 sec×3 antagonist phase—3 sec×17 and 10 sec×12
Addition plates (compound test plate and MES plate) are placed on the right and left positions in the FLIPR tray, respectively. Cell plates are placed in the middle position and the ASIC1a program is effectuated. FLIPR will then take the appropriate measurements in accordance with the interval settings above. Fluorescence obtained after stimulation is corrected for the mean basal fluorescence (in modified Assay Buffer).
The MES-induced peak calcium response, in the presence of test substance, is expressed relatively to the MES response alone. Test substances that block the MES-induced calcium response are re-tested in triplicates. Confirmed hits are picked for further characterization by performing full dose-response curves to determine potency of each hit compound as represented by the IC50 values (i.e., the concentration of the test substance which inhibits 50% of the MES-induced calcium response).
It is noted that the compounds below are not radiolabelled.
In general terms: Calcium flux is commonly read through the fluorescence of an indicator in the cells.

Data set [1] concerns formalin-induced pain in Sprague-Dawley rats. Kind of data set: Formalin model of acute tonic pain. The settings on record: rat, in vivo. In kind it is in vivo, rat. The protocol: Male Sprague-Dawley rats are housed together in groups of three animals under standard conditions with unrestricted access to food and water. All experiments are conducted according to the ethical guidelines for investigations of experimental pain in conscious animals (Zimmerman, 1983)
Assessment of formalin-induced flinching behavior in normal, uninjured rats (body weight 150-180 g) was made with the use of an Automated Nociception Analyser (University of California, San Diego, USA). Briefly, this involved placing a small C-shaped metal band (10 mm wide×27 mm long) on the hindpaw of the rat to be tested. The rats (four rats were included in each testing session) were then placed in a cylindrical plexiglass observation chamber (diameter 30.5 cm and height 15 cm) for 20 min for adaptation purposes prior to being administered drug or vehicle according to the experimental paradigm being followed. After adaptation, individual rats were then gently restrained and formalin (5% in saline, 50 μl, s.c.) was injected into the plantar surface of the hindpaw using a 27 G needle. Rats were then returned to their separate observation chambers, each of which were in turn situated upon an enclosed detection device consisting of two electromagnetic coils designed to produce an electromagnetic field in which movement of the metal band could be detected. The analogue signal was then digitised and a software algorithm (LabView) applied to enable discrimination of flinching behaviour from other paw movements. A sampling interval of 1 min was used and on the basis of the resulting response patterns 5 phases of nociceptive behaviour were identified and scored: first phase (P1; 0-5 min), interphase (Int; 6-15 min), second phase (P2; […]), phase 2A (P2A; 16-40 min) and phase 2B (P2B; 41-60 min).
Nociceptive behavior was also determined manually every 5 min by measuring the amount of time spent in each of four behavioral categories: 0, treatment of the injected hindpaw is indistinguishable from that of the contralateral paw; 1, the injected paw has little or no weight placed on it; 2, the injected paw is elevated and is not in contact with any surface; 3, the injected paw is licked, bitten, or shaken. A weighted nociceptive score, ranging from 0 to 3 was calculated by multiplying the time spent in each category by the category weight, summing these products, and dividing by the total time for each 5 min block of time. (Coderre et al., Pain 1993; 54: 43). On the basis of the resulting response patterns, 2 phases of nociceptive behavior were identified and scored: first phase (P1; 0-5 min), interphase (Int; 6-15 min), second phase (P2; […]), phase 2A (P2A; 16-40 min) and phase 2B (P2B; 41-60 min).
Statistical analysis was performed using Prism™ 4.01 software package (GraphPad, San Diego, Calif., USA). The difference in response levels between treatment groups and control vehicle group was analyzed using an ANOVA followed by Bonferroni's method for post-hoc pair-wise comparisons. A p value<0.05 was considered to be significant
The effect of Compound A on pain induced by intraplantar formalin injection was investigated. Compound A was administered i.p. 30 min. before the formalin. Compound A was able to reduce the total pain score behavior (flinching, licking, biting) in phase 1 and 2 of the formalin test.

Data set [2] can be described thus: Liver microsomes stability and metabolite identification (LC-MS), rat. In kind it is in vitro ADME. From the text:
(§1) The objective of this study is to analyze in vitro samples of Compound A and Compound B from rat and human microsomes using liquid chromatography quadrupole ion trap mass spectrometry and identify the nature of the metabolite(s) for each species.
(§2) The HPLC system consisted of a Thermo Surveror autosampler and a Thermo Surveyor MS pump (San Jose, Calif., USA). The LC-MS/MS system used was a Thermo LCQ Advantage (San Jose, Calif., USA). Data was acquired on a Dell Optiplex desktop computer (Round Rock, Tex., USA) equipped with operation system Windows XP professional. Data acquisition and analysis were performed using XCalibur 1.4 (San Jose, Calif., USA).
(§3) After the incubation period of the liver microsomes, the reaction was stopped with the addition of acetonitrile and frozen for transport. Before analysis, the samples were thawed at room temperature. They were vortexed vigorously and centrifuged at approximately 12000 g for 10 minutes. The supernatant was transferred into an injection vial for analysis.
(§4) A gradient mobile phase was used with a Thermo Phenyl 100×2 mm column with particle size of 5 μm. The initial mobile phase condition consisted of methanol and 0.1% formic acid solution at a ratio of 20:80, respectively. From 0 to 2 minutes, the ratio was maintained at 20:80. From 2 to 10 minutes, a linear gradient was applied and a ratio of 90:10 was maintained from 10 to 12 minutes. […] The flow rate was fixed at 0.25 mL/min.
(§5) The mass spectrometer was interfaced with the HPLC system using a pneumatic assisted electrospray ion source. The sheath gas was set to 15 units and the ESI electrode was set to 4000 V (positive mode). The capillary temperature was set at 300° C., and the capillary voltage was set to 13 V. The mass spectrometer was operating in full scan MS mode using one segment analysis (200-800).
Background: Liver microsomes are a subcellular fraction often used to study metabolism.

Data set [3] can be described thus: Liver microsomes stability and metabolite identification (LC-MS), dog. It is filed as in vitro ADME.
Data set [4] in a line: Liver microsomes stability and metabolite identification (LC-MS), human. In kind it is in vitro ADME.
From the text: as §1, §2, §3, §4, §5

Data set [5] is described as follows: Plasma composition analysis, parent compound and metabolites by MS. It is filed as in vivo. The settings on record: rat plasma. Here is the method: Rats receive compounds (5 mg/kg) dissolved in HPβCD 15%, dextrose 2.5%, pH 5 by intravenous (i.v). route or (25-30 mg/kg) dissolved in HPβCD 15%, dextrose 2.5%, […] (s.c.) route or (50-150 mg/kg) dissolved in HPβCD 15%, dextrose 2.5%, pH 5 by oral (p.o.) route. After the treatment, approximately 100 μl of blood sample is collected and the accurate bleeding time is recorded for each sample. Each blood sample is collected into Microvette blood collection tube containing anticoagulant lithium heparin. Following collection, the samples are centrifuged at […] for 15 minutes (to avoid haemolysis) and the plasma obtained from each is recovered and stored frozen (at −80° C.) pending analysis. Frozen samples are shipped on dry ice to quantify drug concentration within plasma after extraction procedure as previously described in Example 13.

Setting [6] is: rat microsomes 60 min (samples 8-10).
The mark [7] stands for this setting: dog microsomes 60 min (samples 26-28).
Where [8] appears, read: human microsomes 60 min (samples 17-19).

Structures are written as SMILES. Several values for one entry are separate records, joined by “and”; a condition that tells them apart may be missing. Identical values can stand only once.

As usually defined, the IC50 is the concentration needed to halve the response being measured. Consider `COc1ccc(F)cc1-c1cc2c(c3c1CCN(C)C3)NC(=O)/C2=N/O` [Compound A (minor Z isomer isolated), 5-(5-fluoro-2-methoxyphenyl)-6,7,8,9-tetrahydro-3-(hydroxyimino)-8-methyl-1H-pyrrolo[3,2-h]isoquinoline-2(3H)-one], for which the IC50 on ASIC1a is 1000 nM.

Consider `CCN1CCc2c(-c3cc(F)ccc3OC)cc3c(c2C1)NC(=O)/C3=N/O` [Compound B, 5-(5-fluoro-2-methoxyphenyl)-6,7,8,9-tetrahydro-3-(hydroxyimino)-8-ethyl-1H-pyrrolo[3,2-h]isoquinoline-2(3H)-one], for which the “acute tonic pain induced by formalin injection in the paw” value in data set [1] is listed as “block”. Also, the Total % metabolites is 12.8% in data set [2] (% peak area relative to parent at T0, 60 min incubation, rat microsomes); 4.93% in data set [3] (% peak area relative to parent at T0, 60 min incubation, dog microsomes); 9.4% in data set [4] (% peak area relative to parent at T0, 60 min incubation, human microsomes). Also, the entries for the “Compound B metabolite identification: m/z 342” value in data set [2] (setting [6]), in data set [3] (setting [7]) and in data set [4] (setting [8]) were “Yes”, “very weak” and “Yes”, respectively. Also, the results for the “Compound B metabolite identification: m/z 356” value in data set [2] (setting [6]), in data set [3] (setting [7]) and in data set [4] (setting [8]) were “Yes”, “very weak” and “low”, respectively. Also, the “Compound B metabolite identification: m/z 370 (parent)” value in data set [2] (setting [6]), in data set [3] (setting [7]) and in data set [4] (setting [8]) was “Yes” each time. For the same molecule, the “Compound B metabolite identification: m/z 386” value in data set [2] (setting [6]) is “Yes”; in data set [3] (setting [7]) it was “low”; in data set [4] (setting [8]), “Yes”. In addition, the “Calc. Conc.” value is 4.95 µM in data set [2] (rat microsomes, time 0 min); 0.90 µM and 0.92 µM and 0.97 µM in data set [2] (rat microsomes, time 60 min); 4.44 µM and 4.56 µM in data set [3] (dog microsomes, time 0 min); 4.33 µM and 4.38 µM and 4.17 µM in data set [3] (dog microsomes, time 60 min); 4.39 µM and 5.04 µM in data set [4] (human microsomes, time 0 min); 4.34 µM and 4.59 µM and 5.03 µM in data set [4] (human microsomes, time 60 min). Moreover, the “Plasma Component: N-desMe or desEt” value in data set [5] (IV 5 mg/kg), in data set [5] (PO 50 mg/kg) and in data set [5] (SC 25 mg/kg) was “Trace” throughout. Also, the “Plasma Component: O-desMe” value in data set [5] (IV 5 mg/kg), in data set [5] (PO 50 mg/kg) and in data set [5] (SC 25 mg/kg) was “Trace” in each case. The “Plasma Component: P—OH” value in data set [5] (IV 5 mg/kg), in data set [5] (PO 50 mg/kg) and in data set [5] (SC 25 mg/kg) was “Trace” in each case.

With `CN1CCc2c(-c3cc(F)ccc3O)cc3c(c2C1)NC(=O)C3=NO` [Compound L, 5-(5-Fluoro-2-hydroxyphenyl)-3-(hydroxyimino)-8-methyl-6,7,8,9-tetrahydro-1H-pyrrolo[3,2-h]isoquinolin-2(3H)-one], on ASIC1a, the IC50 was determined as 800 nM.
